Laboratory results taken from US5292733A, “Cephalosporin compounds” (Lucky Limited, priority 1991, dated 1994).
Converted amounts (≈) assume the structure as drawn.

What was measured:
Assay in all cases: Antibacterial activity MIC, two-fold agar dilution
Format in all cases: cell-based
[1] = system: Bacillus megaterium ATCC 9885; details: Priestia megaterium, ATCC9885; Bacillus megaterium ATCC 9885; Muller-Hinton agar, 37° C., 20 hours; read-out: Antibacterial Activity MIC
Method in brief: (§1)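 Agar dilution assay in Muller-Hinton medium with doubling compound concentrations. Strains were inoculated as 2 μl of a 10^7 CFU/ml suspension and grown for 20 hours at 37° C.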

[2] = system: Shigella flexneri ATCC 11836; details: ATCC11836, Muller-Hinton agar, 37° C., 20 hours
Method in brief: as §1

[3] = system: Streptococcus faecalis ATCC 29212; details: Enterococcus faecalis, ATCC29212; Streptococcus faecalis ATCC 29212; Muller-Hinton agar, 37° C., 20 hours; read-out: Antibacterial Activity MIC
Method in brief: as §1

[4] = system: Enterobacter aerogenes ATCC 29751; details: Klebsiella aerogenes, ATCC29751; Enterobacter aerogenes ATCC 29751; Muller-Hinton agar, 37° C., 20 hours; read-out: Antibacterial Activity MIC
Method in brief: as §1

[5] = system: Proteus mirabilis ATCC 25933; details: ATCC25933; Proteus mirabilis ATCC 25933; Muller-Hinton agar, 37° C., 20 hours; read-out: Antibacterial Activity MIC
Method in brief: as §1

[6] = system: Serratia marcescens ATCC 27117; details: ATCC27117; Serratia marcescens ATCC 27117; Muller-Hinton agar, 37° C., 20 hours; read-out: Antibacterial Activity MIC
Method in brief: as §1

[7] = system: Klebsiella pneumoniae ATCC 10031; details: ATCC10031; Klebsiella pneumoniae ATCC 10031; Muller-Hinton agar, 37° C., 20 hours; read-out: Antibacterial Activity MIC
Method in brief: as §1

[8] = system: Morganella morganii ATCC 8076h; details: ATCC8076H, Muller-Hinton agar, 37° C., 20 hours
Method in brief: as §1

[9] = system: Shigella sonnei ATCC 11060; details: ATCC11060, Muller-Hinton agar, 37° C., 20 hours
Method in brief: as §1

[10] = system: Enterobacter cloacae ATCC 27508; details: ATCC27508; Enterobacter cloacae ATCC 27508; Muller-Hinton agar, 37° C., 20 hours; read-out: Antibacterial Activity MIC
Method in brief: as §1

[11] = system: Staphylococcus epidermidis ATCC 12228; details: ATCC12228; Staphylococcus epidermidis ATCC 12228; Muller-Hinton agar, 37° C., 20 hours; read-out: Antibacterial Activity MIC
Method in brief: as §1

[12] = system: Acinetobacter calcoaceticus ATCC 15473; details: ATCC15473; Acinetobacter calcoaceticus ATCC 15473; Muller-Hinton agar, 37° C., 20 hours; read-out: Antibacterial Activity MIC
Method in brief: as §1

[13] = system: Escherichia coli ATCC 10536; details: ATCC10536, Muller-Hinton agar, 37° C., 20 hours
Method in brief: as §1

[14] = system: Staphylococcus aureus ATCC 6538p; details: ATCC6538P; Staphylococcus aureus ATCC 6538p; Muller-Hinton agar, 37° C., 20 hours; read-out: Antibacterial Activity MIC
Method in brief: as §1

[15] = system: Pseudomonas aeruginosa ATCC 25619; details: ATCC25619; Pseudomonas aeruginosa ATCC 25619; Muller-Hinton agar, 37° C., 20 hours; read-out: Antibacterial Activity MIC
Method in brief: as §1

[16] = system: Bacillus cereus ATCC 11778; details: ATCC11778; Bacillus cereus ATCC 11778; Muller-Hinton agar, 37° C., 20 hours; read-out: Antibacterial Activity MIC
Method in brief: as §1

[17] = system: Staphylococcus aureus ATCC 10537; details: ATCC10537; Staphylococcus aureus ATCC 10537; Muller-Hinton agar, 37° C., 20 hours; read-out: Antibacterial Activity MIC
Method in brief: as §1

[18] = system: Pseudomonas aeruginosa ATCC 27853; details: ATCC27853; Pseudomonas aeruginosa ATCC 27853; Muller-Hinton agar, 37° C., 20 hours; read-out: Antibacterial Activity MIC
Method in brief: as §1

[19] = system: Proteus vulgaris ATCC 6059; details: ATCC6059; Proteus vulgaris ATCC 6059; Muller-Hinton agar, 37° C., 20 hours; read-out: Antibacterial Activity MIC
Method in brief: as §1

[20] = system: Escherichia coli ATCC 25922; details: ATCC25922, Muller-Hinton agar, 37° C., 20 hours
Method in brief: as §1

[21] = system: Micrococcus luteus ATCC 9341; details: ATCC9341; Micrococcus luteus ATCC 9341; Muller-Hinton agar, 37° C., 20 hours; read-out: Antibacterial Activity MIC
Method in brief: as §1

[22] = system: Citrobacter freundii ATCC 8090; details: ATCC8090; Citrobacter freundii ATCC 8090; Muller-Hinton agar, 37° C., 20 hours; read-out: Antibacterial Activity MIC
Method in brief: as §1

[23] = system: Pseudomonas aeruginosa ATCC 10145; details: ATCC10145; Pseudomonas aeruginosa ATCC 10145; Muller-Hinton agar, 37° C., 20 hours; read-out: Antibacterial Activity MIC
Method in brief: as §1

[24] = system: Salmonella typhimurium ATCC 14028; details: Salmonella enterica; Salmonella typhimurium ATCC 14028; Muller-Hinton agar, 37° C., 20 hours; read-out: Antibacterial Activity MIC
Method in brief: as §1

[25] = system: Providencia rettgeri ATCC 9250; details: ATCC9250, Muller-Hinton agar, 37° C., 20 hours
Method in brief: as §1

CC[n+]1c(N)cc(SCC2=C(C(=O)[O-])N3C(=O)[C@@H](NC(=O)/C(=N\OCC(=O)O)c4csc(N)n4)[C@H]3SC2)nc1N [Compound I-18, (6R,7R)-7-[(Z)-2-(2-aminothiazol-4-yl)-2-(carboxymethoxyimino)acetamido]-3-(2,6-diamino-1-ethyl-pryrimidinium-4-yl)thiomethyl-3-cephem-4-carboxylate]
MIC [1]: 0.5 µg/mL (≈ 0.82 µM)
MIC [2]: 0.016 µg/mL (≈ 0.0262 µM)
MIC [3]: > 128 µg/mL
MIC [4]: 2 µg/mL (≈ 3.28 µM)
MIC [5]: 0.063 µg/mL (≈ 0.103 µM)
MIC [6]: 0.063 µg/mL (≈ 0.103 µM)
MIC [7]: 0.031 µg/mL (≈ 0.0508 µM)
MIC [8]: ≤ 0.008 µg/mL
MIC [9]: 0.063 µg/mL (≈ 0.103 µM)
MIC [10]: 0.016 µg/mL (≈ 0.0262 µM)
MIC [11]: 2 µg/mL (≈ 3.28 µM)
MIC [12]: 16 µg/mL (≈ 26.2 µM)
MIC [13]: 0.063 µg/mL (≈ 0.103 µM)
MIC [14]: 4 µg/mL (≈ 6.56 µM)
MIC [15]: 1 µg/mL (≈ 1.64 µM)
MIC [16]: > 128 µg/mL
MIC [17]: 4 µg/mL (≈ 6.56 µM)
MIC [18]: 2 µg/mL (≈ 3.28 µM)
MIC [19]: 0.063 µg/mL (≈ 0.103 µM)
MIC [20]: 0.063 µg/mL (≈ 0.103 µM)
MIC [21]: 0.5 µg/mL (≈ 0.82 µM)
MIC [22]: 0.063 µg/mL (≈ 0.103 µM)
MIC [23]: 4 µg/mL (≈ 6.56 µM)
MIC [24]: 0.25 µg/mL (≈ 0.41 µM)
MIC [25]: ≤ 0.008 µg/mL

CC(O/N=C(\C(=O)N[C@@H]1C(=O)N2C(C(=O)[O-])=C(CSc3cc(N)[n+](C)c(N)n3)CS[C@H]12)c1csc(N)n1)C(=O)O (stereo partly drawn) [Compound I-19, (6R,7R)-7-[(Z)-2-(2-aminothiazol-4-yl)-2-(R,S-carboxyeth-1-oxyimino)acetamido]-3-(2,6-diamino-1-methylpyrimidinium-4-yl)thiomethyl-3-cephem-4-carboxylate]
MIC [1]: 0.25 µg/mL (≈ 0.41 µM)
MIC [2]: 0.016 µg/mL (≈ 0.0262 µM)
MIC [3]: 128 µg/mL (≈ 210 µM)
MIC [4]: 1 µg/mL (≈ 1.64 µM)
MIC [5]: 0.13 µg/mL (≈ 0.213 µM)
MIC [6]: 0.25 µg/mL (≈ 0.41 µM)
MIC [7]: 0.063 µg/mL (≈ 0.103 µM)
MIC [8]: ≤ 0.008 µg/mL
MIC [9]: 0.25 µg/mL (≈ 0.41 µM)
MIC [10]: 0.031 µg/mL (≈ 0.0508 µM)
MIC [11]: 4 µg/mL (≈ 6.56 µM)
MIC [12]: 8 µg/mL (≈ 13.1 µM)
MIC [13]: 0.13 µg/mL (≈ 0.213 µM)
MIC [14]: 4 µg/mL (≈ 6.56 µM)
MIC [15]: 1 µg/mL (≈ 1.64 µM)
MIC [16]: 128 µg/mL (≈ 210 µM)
MIC [17]: 4 µg/mL (≈ 6.56 µM)
MIC [18]: 2 µg/mL (≈ 3.28 µM)
MIC [19]: 0.25 µg/mL (≈ 0.41 µM)
MIC [20]: 0.13 µg/mL (≈ 0.213 µM)
MIC [21]: 0.5 µg/mL (≈ 0.82 µM)
MIC [22]: 0.13 µg/mL (≈ 0.213 µM)
MIC [23]: 4 µg/mL (≈ 6.56 µM)
MIC [24]: 0.25 µg/mL (≈ 0.41 µM)
MIC [25]: ≤ 0.008 µg/mL

CC[n+]1c(N)cc(SCC2=C(C(=O)[O-])N3C(=O)[C@@H](NC(=O)/C(=N\OC(C)C(=O)O)c4csc(N)n4)[C@H]3SC2)nc1N (stereo partly drawn) [Compound I-20, (6R,7R)-7-[(Z)-2-(2-aminothiazol-4-yl)-2-(R,S-carboxyeth-1-oxyimino)acetamido]-3-(2,6-diamino-1-ethylprimidinium-4-yl)thiomethyl-3cephem-4-carboxylate]
MIC [1]: 0.25 µg/mL (≈ 0.401 µM)
MIC [2]: 0.016 µg/mL (≈ 0.0257 µM)
MIC [3]: 128 µg/mL (≈ 205 µM)
MIC [4]: 1 µg/mL (≈ 1.6 µM)
MIC [5]: 0.063 µg/mL (≈ 0.101 µM)
MIC [6]: 0.25 µg/mL (≈ 0.401 µM)
MIC [7]: 0.063 µg/mL (≈ 0.101 µM)
MIC [8]: ≤ 0.008 µg/mL
MIC [9]: 0.5 µg/mL (≈ 0.802 µM)
MIC [10]: 0.016 µg/mL (≈ 0.0257 µM)
MIC [11]: 4 µg/mL (≈ 6.41 µM)
MIC [12]: 8 µg/mL (≈ 12.8 µM)
MIC [13]: 0.13 µg/mL (≈ 0.208 µM)
MIC [14]: 2 µg/mL (≈ 3.21 µM)
MIC [15]: 1 µg/mL (≈ 1.6 µM)
MIC [16]: 128 µg/mL (≈ 205 µM)
MIC [17]: 4 µg/mL (≈ 6.41 µM)
MIC [18]: 2 µg/mL (≈ 3.21 µM)
MIC [19]: 0.25 µg/mL (≈ 0.401 µM)
MIC [20]: 0.13 µg/mL (≈ 0.208 µM)
MIC [21]: 0.25 µg/mL (≈ 0.401 µM)
MIC [22]: 0.13 µg/mL (≈ 0.208 µM)
MIC [23]: 4 µg/mL (≈ 6.41 µM)
MIC [24]: 0.5 µg/mL (≈ 0.802 µM)
MIC [25]: ≤ 0.008 µg/mL
